Test results: patent US5994365A, “Substituted diazaanthracene compounds having pharmaceutical utility” (Diazans Limited, priority 1998, dated 1999)
Where “and” joins values, the source holds several entries; their conditions need not be identical. Equal entries are not always repeated.

What was measured:
[1] = test system: Methicillin-resistant Staph aureus (MRSA); experiment: Broth microdilution (NCCLS guidelines), MIC; format: cell-based, Staphylococcus aureus
Description: (§1) The dimer product of Example 15 was obtained in powder form. A stock solution of 1280 mg/L of the dimer in dimethylsulfoxide (DMSO) was prepared and stored at room temperature in a foil-wrapped screw-capped tube (10 ml). Subsequent dilutions were prepared using cation-adjusted Mueller-Hinton broth (50 mg/L Mg). […] It was resuspended upon mixing each time an aliquot was taken from the solution.
(§2) Approximately 100 varied bacterial isolates were initially collected for screening, along with 9 ATCC organisms. Forty additional strains of Staphylococcus species were subsequently screened. All isolates were identified according to generally accepted lab protocol.
(§3) Broth microdilution was performed according to NCCLS guidelines. Microdilution panels were prepared using doubling dilutions of the dimer in ~250 μl plastic, 96-well trays. Inoculum suspension equal to a 0.5 McFarland standard were further diluted and added to the microdilution trays to achieve a final inoculum of 5×10^5 CFU/ml (5×10^4 CFU/well). Colony counts were performed to confirm the final inoculum, as well as its purity. Each strain was also tested in a growth control well containing only MHB for viability.
(§4) Microdilution trays were incubated at 35° C. in ambient air or 5% CO2 as appropriate for 16-20 hours. After incubation, the minimal inhibitory concentration (MIC) was defined as the lowest concentration of the dimer with no evidence of growth. Since 10 or more strains of most organisms were tested; a range of MICs was determined for each organism, as well as the concentration of the dimer that inhibited 50% of the strains (MIC50) and the concentration of the dimer that inhibited 90% of the strains (MIC90).

Staph aureus = experiment: Broth microdilution (NCCLS guidelines), MIC; format: cell-based, Staphylococcus aureus; design: MICs: unit not given beside the values; conditions: for 1st MIC / 2nd MIC: Table B
Description: as §1, §2, §3, §4

[2] = Table C, 10 strains, solution 14 days old
[3] = Table E, 10 strains, fresh solution
[4] = strain S. aureus 1 (line under ATCC 25923)
[5] = Table C, Pip/Taz S. aureus, 10 strains, solution 14 days old
[6] = Table C, S. aureus, 10 strains, solution 14 days old
[7] = Table E, Pip/Taz SA, 10 strains, fresh solution
[8] = Table E, S. aureus, 10 strains, fresh solution
[9] = Table G, S. aureus (2nd clinical isolate collection), 10 strains
[10] = Table G, S. aureus (pip-tazo study), 10 strains

10,10'-bis(3,6-dimethyl-5,10-dihydro-1,8-diazaanthracen-5-one) and 5,5'-bis(3,6-dimethyl-5,10-dihydro-1,8-diazaanthracen-10-one) [Example 15]
MIC50 ([1]; Table A, 12 strains): 0.5 µg/mL | MIC90 ([1]; Table A, 12 strains): 1.0 µg/mL | Range of MICs ([1]; Table A, 12 strains): 0.25 to 1.0 mg/L | MIC ([1]; Table A, ATCC MRSA 33591): 0.5 µg/mL | MIC50 [1, 2]: > 16 µg/mL | MIC90 [1, 2]: > 16 µg/mL | Range of MICs ([1]; Table C, 10 strains, solution 14 days old, in µg/mL): > 16 | MICs ([1]; Table C, ATCC MRSA 33591, solution 14 days old, listed as Dimer, in µg/mL): 8 and 16 | MIC50 [1, 3]: 2 µg/mL | MIC90 [1, 3]: 8 µg/mL | Range of MICs ([1]; Table E, 10 strains, fresh solution, in µg/mL): 0.5-8 | MICs ([1]; Table E, ATCC MRSA 33591 (×2), fresh solution, in µg/mL): 1.0 | MIC ([1]; Table F, MRSA 2): 8 µg/mL | MIC ([1]; Table F, MRSA 4): 2 µg/mL | MIC ([1]; Table F, MRSA 6): 0.5 µg/mL | MIC50 ([1]; Table G, 10 strains): 2 µg/mL | MIC90 ([1]; Table G, 10 strains): 8 µg/mL | Range of MICs ([1]; Table G, 10 strains): 0.5 to 8 mg/L | MIC50 (Staph aureus; Table A, 12 strains): 0.5 µg/mL | MIC90 (Staph aureus; Table A, 12 strains): 1.0 µg/mL | Range of MICs (Staph aureus; Table A, 12 strains): .0625 to 1.0 mg/L | MIC (Staph aureus; Table A, ATCC MSSA 25923): 0.0625 µg/mL | MIC (Staph aureus; Table A, ATCC MSSA 29213): 1.0 µg/mL | 1st MIC (Staph aureus; [4]): 0.0625 µg/mL | 2nd MIC (Staph aureus; [4]): 0.0625 µg/mL | 1st MIC (Staph aureus; strain S. aureus 2): 1 µg/mL | 2nd MIC (Staph aureus; strain S. aureus 2): 1 µg/mL | 1st MIC (Staph aureus; strain S. aureus 3): 0.5 µg/mL | 2nd MIC (Staph aureus; strain S. aureus 3): 0.125 µg/mL | 1st MIC (Staph aureus; strain S. aureus 4): 1 µg/mL | 2nd MIC (Staph aureus; strain S. aureus 4): 1 µg/mL | 1st MIC (Staph aureus; strain S. aureus 5): 1 µg/mL | 1st MIC (Staph aureus; strain S. aureus 6): 0.125 µg/mL | 2nd MIC (Staph aureus; strain S. aureus 6): 0.25 µg/mL | 1st MIC (Staph aureus; strain S. aureus 7): 0.5 µg/mL | 2nd MIC (Staph aureus; strain S. aureus 7): 0.5 µg/mL | 1st MIC (Staph aureus; strain S. aureus 8): 0.5 µg/mL | 2nd MIC (Staph aureus; strain S. aureus 8): 1 µg/mL | MICs (Staph aureus; Table C, ATCC MSSA 25923, solution 14 days old, listed as Dimer): 8 and > 16 | MICs (Staph aureus; Table C, ATCC MSSA 29213, solution 14 days old, listed as Dimer, in µg/mL): 4 and 8 | MIC50 (Staph aureus; [5]): 2 µg/mL | MIC90 (Staph aureus; [5]): 8 µg/mL | Range of MICs (Staph aureus; Table C, Pip/Taz S. aureus, 10 strains, solution 14 days old, in µg/mL): 2-16 | MIC50 (Staph aureus; [6]): 4 µg/mL | MIC90 (Staph aureus; [6]): 16 µg/mL | Range of MICs (Staph aureus; Table C, S. aureus, 10 strains, solution 14 days old, in µg/mL): 2-8 | MIC (Staph aureus; Table D, S. aureus 1): 2 µg/mL | MIC (Staph aureus; Table D, S. aureus 2): 16 µg/mL | MIC (Staph aureus; Table D, S. aureus 3): 8 µg/mL | MIC (Staph aureus; Table D, S. aureus 4): 4 µg/mL | MIC (Staph aureus; Table D, S. aureus 5): 16 µg/mL | MIC (Staph aureus; Table D, S. aureus 6): 2 µg/mL | MIC (Staph aureus; Table D, S. aureus 7): 8 µg/mL | MIC (Staph aureus; Table D, S. aureus 8): 2 µg/mL | MIC (Staph aureus; Table D, S. aureus 9): 2 µg/mL | MIC (Staph aureus; Table D, S. aureus 10): 4 µg/mL | MICs (Staph aureus; Table E, ATCC MSSA 25923, fresh solution, listed as Dimer, in µg/mL): 0.125 and 0.25 | MICs (Staph aureus; Table E, ATCC MSSA 29213 (×2), fresh solution, in µg/mL): 2 | MIC50 (Staph aureus; [7]): 1 µg/mL | MIC90 (Staph aureus; [7]): 2 µg/mL | Range of MICs (Staph aureus; Table E, Pip/Taz SA, 10 strains, fresh solution, in µg/mL): 0.25-2 | MIC50 (Staph aureus; [8]): 0.5 µg/mL | MIC90 (Staph aureus; [8]): 1 µg/mL | Range of MICs (Staph aureus; Table E, S. aureus, 10 strains, fresh solution, in µg/mL): 0.25-1 | MIC (Staph aureus; Table F, ATCC S. aureus 25923): 0.25 µg/mL | MIC (Staph aureus; Table F, ATCC S. aureus 29213): 2 µg/mL | MIC (Staph aureus; Table F, Pip/Taz S. aureus 1): 2 µg/mL | MIC (Staph aureus; Table F, Pip/Taz S. aureus 3): 0.25 µg/mL | MIC (Staph aureus; Table F, Pip/Taz S. aureus 7): 1 µg/mL | MIC (Staph aureus; Table F, S. aureus 1): 0.25 µg/mL | MIC (Staph aureus; Table F, S. aureus 2): 1 µg/mL | MIC (Staph aureus; Table F, S. aureus 8): 0.5 µg/mL | MIC (Staph aureus; Table G footnote, ATCC 25923, methicillin susceptible): 0.25 µg/mL | MIC (Staph aureus; Table G footnote, ATCC 29213, methicillin susceptible): 2 µg/mL | MIC50 (Staph aureus; [9]): 0.5 µg/mL | MIC90 (Staph aureus; [9]): 1 µg/mL | Range of MICs (Staph aureus; [9]): 0.25 to 1 mg/L | MIC50 (Staph aureus; [10]): 1 µg/mL | MIC90 (Staph aureus; [10]): 2 µg/mL | Range of MICs (Staph aureus; [10]): 0.25 to 2 mg/L
